Article PMC12615518, “Discovery of CRBN-recruiting PROTAC degraders of the METTL3-METTL14 complex” (Medicinal Chemistry Research, 2025)
Where two headings read alike, the source gives them in different places.

Assays:
METTL3/14 [1] = system: METTL3/14; set-up: method as in PMID 33902106; conditions: read-out: IC50 METTL3/14 catalytic activity inhibition; cited from earlier work
METTL3/14 [2] = molecular target: METTL3/14; set-up: method as in PMID 33902106; conditions: read-out: METTL3/14 binding affinity (Kd); cited from earlier work
[3] = system: human AML patient-derived xenografts (PDX) models; set-up: method as in PMID 33902106; conditions: cited from earlier work
[4] = system: primary mouse MLL-AF9/Flt3^Itd/+ model; set-up: method as in PMID 33902106; conditions: cited from earlier work
METTL3 [5] = system: METTL3; set-up: method as in PMID 32159918; conditions: read-out: IC50 METTL3 activity, reader-based HTRF assay; cited from earlier work
METTL14 = molecular target: T1, METTL14 (Homo sapiens, UniProt Q9HCE5); assay: Immunoblotting (Western blot) degradation of METTL14 in MV4-11 cells; type: cell-based; conditions: MV4-11 cells, 1 µM, 24 h, Fig. 4A right
T1 construct: Following treatment, total cellular proteins were extracted using RIPA buffer; endogenous in cells; host or cells: MV4-11 (MV4.11) human AML cells, ATCC
Experimental: (§1) All cell lines were maintained under standard conditions in a humidified atmosphere at 37 °C with 5% CO₂.
(§2) Western Blot Analysis: Following treatment, total cellular proteins were extracted using RIPA buffer (Auragene, Changsha, China). […] After washing, membranes were incubated with horseradish peroxidase (HRP)-conjugated secondary antibodies (anti-rabbit or anti-mouse IgG; 1:5000) for 2 hours at room temperature. Protein bands were visualized using an enhanced chemiluminescence (ECL) detection kit (Amersham Pharmacia), following the manufacturer's protocol. Band intensities were quantified using ImageJ software and normalized to ACTIN as a loading control. Data was analyzed using GraphPad Prism 9.

METTL3 [6] = system: METTL3; set-up: method as in PMID 34431664; conditions: read-out: IC50 METTL3 inhibition, enzyme-based assays; cited from earlier work
METTL3 [7] = molecular target: METTL3 (Homo sapiens, UniProt Q86U44); assay: Immunoblotting (Western blot) degradation of METTL3 in MV4-11 cells; type: cell-based; set-up: Following treatment, total cellular proteins were extracted using RIPA buffer; endogenous in cells; host or cells: MV4-11 (MV4.11) human AML cells, ATCC; conditions: MV4-11 cells, 1 µM, 24 h, Fig. 4A right
Experimental: as §1, §2

Chain of METTL3 (Homo sapiens, UniProt Q86U44) (Q86U44 2-580 limits assumed): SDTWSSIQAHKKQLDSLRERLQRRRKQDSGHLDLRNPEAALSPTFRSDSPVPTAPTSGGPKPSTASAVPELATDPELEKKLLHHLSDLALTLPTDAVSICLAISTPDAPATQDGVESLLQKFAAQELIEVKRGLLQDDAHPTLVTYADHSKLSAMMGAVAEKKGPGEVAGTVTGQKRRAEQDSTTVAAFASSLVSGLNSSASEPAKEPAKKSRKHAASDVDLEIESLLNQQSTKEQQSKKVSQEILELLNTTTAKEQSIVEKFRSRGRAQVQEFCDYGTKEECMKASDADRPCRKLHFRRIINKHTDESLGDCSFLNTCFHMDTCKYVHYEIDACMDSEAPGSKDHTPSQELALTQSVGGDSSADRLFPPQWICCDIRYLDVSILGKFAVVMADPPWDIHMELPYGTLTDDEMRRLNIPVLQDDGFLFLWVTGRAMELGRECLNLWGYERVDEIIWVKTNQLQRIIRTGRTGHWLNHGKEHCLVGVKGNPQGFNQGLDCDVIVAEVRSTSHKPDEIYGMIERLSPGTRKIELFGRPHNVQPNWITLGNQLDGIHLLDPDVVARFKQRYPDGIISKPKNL
Chain of METTL3 (Homo sapiens, UniProt Q86U44) (Q9HCE5 whole entry partner): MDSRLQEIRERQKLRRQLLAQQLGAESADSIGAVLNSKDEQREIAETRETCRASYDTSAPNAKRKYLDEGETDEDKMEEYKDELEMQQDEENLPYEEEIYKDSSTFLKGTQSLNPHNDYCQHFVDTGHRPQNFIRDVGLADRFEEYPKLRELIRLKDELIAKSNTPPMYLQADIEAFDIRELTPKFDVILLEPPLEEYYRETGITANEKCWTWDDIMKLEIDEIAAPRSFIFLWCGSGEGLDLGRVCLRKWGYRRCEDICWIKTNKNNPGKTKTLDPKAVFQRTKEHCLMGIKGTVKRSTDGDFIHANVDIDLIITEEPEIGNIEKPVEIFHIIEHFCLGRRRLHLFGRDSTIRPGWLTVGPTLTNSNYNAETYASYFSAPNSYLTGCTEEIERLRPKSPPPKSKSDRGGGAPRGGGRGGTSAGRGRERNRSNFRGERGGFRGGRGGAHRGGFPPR
T1 sequence (Q9HCE5 whole entry): as the sequence (Q9HCE5 whole entry partner) above
T1 sequence (Q86U44 2-580 partner): as the sequence (Q86U44 2-580 limits assumed) above

## STM2457
METTL3/14 [1]
  IC50: 16.9 nM
METTL3/14 [2]
  Kd: 1.4 nM
[3]
  anti-leukemic effect: anti-leukemic effect
[4]
  anti-leukemic effect: anti-leukemic effect

## Nc1ncnc2c1ncn2[C@@H]1O[C@H](C(=O)NCCCCN2CCCC2)[C@@H](O)[C@H]1O [Compound 1]
METTL3 [5]
  IC50: 8700 nM

## CNc1cc(N2CCC3(CC2)CN(c2cc(F)c(CN4CCC(C)(C)CC4)cc2F)CC(=O)N3)ncn1 [UZH2, reference compound]
METTL14
  degradation of METTL14 at 1 µM (in words): not degraded
METTL3 [6]
  IC50: 5 nM
METTL3 [7]
  degradation of METTL3 at 1 µM (in words): not degraded
